# Measured values published in patent publication US8710232B2, “Imidazole derivatives used as TAFIa inhibitors” (Sanofi-Aventis Deutschland GmbH, priority 2004, dated 2014).
# Molecular target: TAFIa (Homo sapiens (Human), UniProt Q96IY4)
# Experiment: TAFIa enzyme assay (Actichrome plasma TAFI activity kit)
# Assay type: biochemical
# Conditions: 15 min preincubation at room temperature, read at 420 nm, duplicate determination
# Protocol: The prepared substances were tested for TAFIa inhibition using the Actichrome plasma TAFI activity kit from American Diagnostica (Pr. No. 874). This entailed adding 29 μl of assay buffer (20 mM Hepes, 150 mM NaCl, pH 7.4) and 10 μl of TAFIa (American Diagnostica Pr. No. 874TAFIA; […]) to 1 μl of 5 mM DMSO solution of the substance and incubating in a 96 half-well microtiter plate at room temperature for 15 minutes. The enzymic reaction was started by adding 10 μl of TAFIa developer (prediluted 1:2 with water). The time course of the reaction was followed at 420 nm in a microtiter plate reader (SpectraMax plus 384; Molecular Devices) for 15 minutes. The IC50 was calculated from the averaged values (duplicate determination) of serial dilutions of the substance with the aid of the Grafit 4 software (Erithacus Software, UK).
# TAFIa, sequence (Q96IY4 115-423): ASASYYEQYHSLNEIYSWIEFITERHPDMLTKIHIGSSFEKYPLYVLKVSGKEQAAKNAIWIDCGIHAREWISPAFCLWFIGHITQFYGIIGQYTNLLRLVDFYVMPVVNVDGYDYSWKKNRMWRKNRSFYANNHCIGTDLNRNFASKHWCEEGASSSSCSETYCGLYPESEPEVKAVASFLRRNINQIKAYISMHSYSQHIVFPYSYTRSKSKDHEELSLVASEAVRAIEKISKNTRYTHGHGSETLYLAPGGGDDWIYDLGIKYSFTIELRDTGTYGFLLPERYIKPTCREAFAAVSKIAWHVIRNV
row,Compound,IC50 [nM]
1,"Nc1ccc(CC(C(=O)O)c2cn(C3CCCCC3)cn2)cn1 (stereo not drawn) [Example 1, 3-(6-Aminopyridin-3-yl)-2-(1-cyclohexyl-1H-imidazol-4-yl)propionic acid]",30
2,"Nc1ccc(CC(C(=O)O)c2cn(C3CCCC3)cn2)cn1 (stereo not drawn) [Example 7, 3-(6-Aminopyridin-3-yl)-2-(1-cyclopentyl-1H-imidazol-4-yl)propionic acid]",16
3,"Nc1ccc(CC(C(=O)O)c2cn(-c3ccc(NC(=O)Nc4ccccc4)cc3)cn2)cn1 (stereo not drawn) [Example 12, 3-(6-Aminopyridin-3-yl)-2-{1-[4-(3-phenylureido)phenyl]-1H-imidazol-4-yl}propionic acid]",15
4,"Nc1ccc(CC(C(=O)O)c2cn(CCC3CCN(C(=O)C(c4ccccc4)c4ccccc4)CC3)cn2)cn1 (stereo not drawn) [Example 13, 3-(6-Aminopyridin-3-yl)-2-{1-[2-(1-diphenylacetylpiperidin-4-yl)ethyl]-1H-imidazol-4-yl}-propionic acid]",12
5,"Nc1ccc(CC(C(=O)O)c2cn(CC3CCCCN3C(=O)c3ccccc3)cn2)cn1 (stereo not drawn) [Example 15, 3-(6-Aminopyridin-3-yl)-2-[1-(1-benzoylpiperidin-2-ylmethyl)-1H-imidazol-4-yl]propionic acid]",12
6,"Nc1ccc(CC(C(=O)O)c2cn(CC3CCCN(C(=O)C(c4ccccc4)c4ccccc4)C3)cn2)cn1 (stereo not drawn) [Example 17, 3-(6-Aminopyridin-3-yl)-2-[1-(1-diphenylacetylpiperidin-3-ylmethyl)-1H-imidazol-4-yl]-propionic acid]",11
7,"Nc1ccc(CC(C(=O)O)c2cn(CCC3CCN(C(=O)CCc4ccccc4)CC3)cn2)cn1 (stereo not drawn) [Example 18, 3-(6-Aminopyridin-3-yl)-2-(1-{2-[1-(3-phenylpropionyl)piperidin-4-yl]ethyl}1H-imidazol-4-yl)propionic acid]",21
8,"CC1(C)CCC(n2cnc(C(Cc3ccc(N)nc3)C(=O)O)c2)CC1 (stereo not drawn) [Example 33, 3-(6-Aminopyridin-3-yl)-2-[1-(4,4-dimethylcyclohexyl)-1H-imidazol-4-yl]propionic acid]",3
9,Cc1ccc(S(=O)(=O)Nc2ccc(-n3cnc(C(Cc4ccc(N)nc4)C(=O)O)c3)cc2)cc1 (stereo not drawn) [Example 38],50

# More lines, now with the values ahead:
row,IC50 [nM],Compound
1,1130,"Nc1ccc(CC(C(=O)O)c2cn(C3CCNCC3)cn2)cn1 (stereo not drawn) [Example 8, 3-(6-Aminopyridin-3-yl)-2-(1-piperidin-4-yl-1H-imidazol-4-yl)propionic acid]"
2,439,"Nc1ccc(CC(C(=O)O)c2cn(C3CCN(c4ccccc4)C3=O)cn2)cn1 (stereo not drawn) [Example 9, 3-(6-Aminopyridin-3-yl)-2-[1-(2-oxo-1-phenylpyrrolidin-3-yl)-1H-imidazol-4-yl]propionic acid]"
3,23,"Nc1ccc(CC(C(=O)O)c2cn(CC(=O)NC(c3ccccc3)c3ccccc3)cn2)cn1 (stereo not drawn) [Example 10, 3-(6-Aminopyridin-3-yl)-2-{1-[(benzhydrylcarbamoyl)methyl]-1H-imidazol-4-yl}-propionic acid]"
4,38,"Nc1ccc(CC(C(=O)O)c2cn(CCC3CCCN(C(=O)CCc4ccccc4)C3)cn2)cn1 (stereo not drawn) [Example 16, 3-(6-Aminopyridin-3-yl)-2-(1-{2-[1-(3-phenylpropionyl)piperidin-3-yl]ethyl}-1H-imidazol-4-yl)propionic acid]"
5,10500,"Nc1ccc(CC(C(=O)O)c2cn(Cc3ccc(OC(F)(F)F)cc3)cn2)cn1 (stereo not drawn) [Example 25, 3-(6-Aminopyridin-3-yl)-2-[1-(4-trifluoromethoxybenzyl)-1H-imidazol-4-yl]propionic acid]"
6,1110,"Nc1ccc(CC(C(=O)O)c2cn(Cc3csc4ccc(Cl)cc34)cn2)cn1 (stereo not drawn) [Example 27, 3-(6-Aminopyridin-3-yl)-2-[1-(5-chlorobenzo[b]thiophen-3-ylmethyl)-1H-imidazol-4-yl]-propionic acid]"
7,1440,"Nc1ccc(CC(C(=O)O)c2cn(Cc3cccc(Oc4ccc(F)cc4)c3)cn2)cn1 (stereo not drawn) [Example 28, 3-(6-Aminopyridin-3-yl)-2-{1-[3-(4-fluorophenoxy)benzyl]-1H-imidazol-4-yl}propionic acid]"
8,870,"C#CCn1cnc(C(Cc2ccc(N)nc2)C(=O)O)c1 (stereo not drawn) [Example 31, 3-(6-Aminopyridin-3-yl)-2-(1-prop-2-ynyl-1H-imidazol-4-yl)propionic acid]"
9,49,"CCCNC(=O)Nc1ccc(-n2cnc(C(Cc3ccc(N)nc3)C(=O)O)c2)cc1 (stereo not drawn) [Example 37, 3-(6-Aminopyridin-3-yl)-2-{1-[4-(3-propylureido)phenyl]-1H-imidazol-4-yl}propionic acid]"
